# Reference: patent US10905691B2, “Use of triazolo(4,5-d)pyrimidine derivatives for prevention and treatment of bacterial infection” (Universite de Liege, priority 2016, dated 2021)
# Columns and labels:
# S. aureus ATCC 6538 = assay: MBC and MDK99.9 determination (CFU counting); format: cell-based, Staphylococcus aureus
# Description: Further experiments were conducted using different strains of S. aureus, as clinically relevant Gram-positive bacterial strains: ATCC 25904, ATCC 6538, methilcillin-resistant S. aureus (MRSA) ATCC BAA-1556, Glycopeptide intermediate-resistant (GISA) S. aureus Mu-50 (ATCC 700695) in order to determine the Minimal Inhibitory Concentration (MIC) which is the minimal concentration required to prevent bacterial growth; the Minimal Bactericidal Concentration (MBC) which determines the lowest concentration at which an antimicrobial agent kill a particular microorganism and a Minimum Duration for killing 99.9% bacteria (MDK99.9) which is a tolerance metric according to the EUCAST.
# MBC and MDK99.9 determination: A single colony selected from the different strains of S. aureus is resuspended and cultured in the appropriate medium (TSB, or BHI) overnight (O/N) in aerobic conditions (37° C. with 220 rpm shaking), next day a 1:100 inoculum in the appropriate medium was incubated in aerobic conditions for 2 h. The culture is then challenged with triafluocyl at MIC concentration or higher concentrations. Bacterial growth was measured after different time intervals by counting the colony-forming units after plating appropriate culture dilutions on BHI agar plates. […] And the real time needed is defined as the MDK99.9. […]
# [1] = system: S. epidermidis mature biofilm; assay: Mature biofilm (24-hour) treatment, viable count; format: cell-based, Staphylococcus epidermidis; conditions: 50 μg/ml
# Description: In another experiment we let adhere 0.5×10^8 CFU/ml S. epidermidis cells for 4 hr and let the biofilm form for additional 24 hr in presence of 0.25% glucose, at this point we treated the biofilm with several concentrations of Triafluocyl for 24 hr in TSB with 0.25% glucose and determined the viable count (FIG. 7) as well as the percentage of live cells using the BacLight bacterial viability kit (Molecular Probes). For biofilm analysis, we first washed the biofilm to eliminate all planktonic bacteria and then the biofilm was detached mechanically using a scraper. To assure that the aggregates from the biofilm were completely dissociated, the suspension of cells was passed through a needle (0.5×16 mm) and a dilution was plated on TSA plates.
smiles,measurement,setting,value
"CCCSc1nc(N[C@@H]2C[C@H]2c2ccc(F)c(F)c2)c2nnn([C@@H]3C[C@H](OCCO)[C@@H](O)[C@H]3O)c2n1 [Triafluocyl, (1S,2S,3R,5S)-3-[7-[(1R,2S)-2-(3,4-difluorophenyl)cyclopropylamino]-5-(propylthio)-3H-[1,2,3]-triazolo[4,5-d]pyrimidin-3-yl]-5-(2-hydroxyethoxy)-1,2-cyclopentanediol]",MDK 99.9 Time (h) needed to kill 99.9% of the started inoculum,S. aureus ATCC 6538,6 h
same,MBC,"S. aureus ATCC 6538; Staphylococcus aureus, ATCC6538, cut-off 99.9% reduction in CFU",20 µg/mL
same,number of viable cells in the biofilm,"[1]; 24 hr treatment of 24-hour biofilm, 0.25% glucose",1.5×10^5 CFU/ml
same,reduction of viable cells in the biofilm,"[1]; 24 hr treatment, versus control",~3 log
